Here are results for 26 compounds from US8471005B2 (Cephalon, Inc., priority 2008, dated 2013).

Structures are written as SMILES.

One assay has as its target T1, ALK (Homo sapiens, UniProt Q9UM73).
T1 construct: host or cells: baculovirus expression system
The experiment in a line: ALK Kinase Assay (ELISA/TRF, PLC-γ substrate). Type of assay: biochemical. The conditions noted are these: ALK Kinase Inhibition; read-out: ALK Potency. In short, it runs like this:
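Read-out is time-resolved fluorescence from a Eu-N1-labeled PT66 antibody that binds phosphorylated PLC-γ, the substrate coated at 10 μg/mL in TBS. ALK at 30 ng/ml starts the reaction, which runs 15 minutes at 37° C.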

For another assay, the target named is T2, JAK2 (Homo sapiens, UniProt O60674).
T2 construct: host or cells: baculovirus expression system
Description: Recombinant Human JAK2 Kinase Assay (TRF). Type of assay: biochemical. As to conditions: JAK2 Kinase Inhibition; read-out: JAK2 Potency. In outline:
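Europium-labelled PY100 antibody reported tyrosine phosphorylation of a Neutravidin-captured biotinyl 15-mer peptide by JAK2 (baculovirus-expressed, 15 ng/ml). Conditions: 20 mM HEPES pH 7.2, 0.2 μM ATP, 1 mM MnCl2, 0.1% BSA, DMSO 2.5% final, 20 min at room temperature.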

T2 sequence (O60674 whole entry): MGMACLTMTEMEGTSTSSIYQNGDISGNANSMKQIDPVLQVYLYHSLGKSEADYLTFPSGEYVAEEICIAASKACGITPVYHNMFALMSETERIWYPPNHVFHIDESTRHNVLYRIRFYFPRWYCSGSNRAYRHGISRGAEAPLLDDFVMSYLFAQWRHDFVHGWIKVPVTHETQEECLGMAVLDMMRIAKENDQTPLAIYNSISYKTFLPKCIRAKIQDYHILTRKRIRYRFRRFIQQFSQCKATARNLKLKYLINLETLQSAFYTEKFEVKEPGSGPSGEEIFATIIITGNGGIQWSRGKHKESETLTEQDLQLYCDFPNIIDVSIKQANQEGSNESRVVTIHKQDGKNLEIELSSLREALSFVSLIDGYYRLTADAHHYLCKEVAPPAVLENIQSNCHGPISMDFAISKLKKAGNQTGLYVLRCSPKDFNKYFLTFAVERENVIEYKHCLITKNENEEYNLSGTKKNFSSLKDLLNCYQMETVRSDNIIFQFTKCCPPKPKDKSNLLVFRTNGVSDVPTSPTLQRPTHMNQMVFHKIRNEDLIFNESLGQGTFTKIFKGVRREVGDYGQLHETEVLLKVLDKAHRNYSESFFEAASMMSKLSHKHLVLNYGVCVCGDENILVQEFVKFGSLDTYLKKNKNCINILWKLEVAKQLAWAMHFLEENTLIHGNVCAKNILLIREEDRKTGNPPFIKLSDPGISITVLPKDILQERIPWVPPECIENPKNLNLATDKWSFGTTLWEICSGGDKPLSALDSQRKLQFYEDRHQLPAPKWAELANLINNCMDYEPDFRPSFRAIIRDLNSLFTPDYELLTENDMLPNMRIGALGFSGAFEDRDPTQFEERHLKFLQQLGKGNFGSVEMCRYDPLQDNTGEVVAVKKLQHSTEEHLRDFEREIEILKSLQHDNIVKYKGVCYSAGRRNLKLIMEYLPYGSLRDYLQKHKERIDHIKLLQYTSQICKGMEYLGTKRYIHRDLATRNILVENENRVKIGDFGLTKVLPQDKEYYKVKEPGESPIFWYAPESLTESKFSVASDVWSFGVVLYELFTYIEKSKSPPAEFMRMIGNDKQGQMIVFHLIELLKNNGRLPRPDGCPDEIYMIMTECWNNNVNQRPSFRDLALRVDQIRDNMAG
T1 sequence (Q9UM73 19-1620): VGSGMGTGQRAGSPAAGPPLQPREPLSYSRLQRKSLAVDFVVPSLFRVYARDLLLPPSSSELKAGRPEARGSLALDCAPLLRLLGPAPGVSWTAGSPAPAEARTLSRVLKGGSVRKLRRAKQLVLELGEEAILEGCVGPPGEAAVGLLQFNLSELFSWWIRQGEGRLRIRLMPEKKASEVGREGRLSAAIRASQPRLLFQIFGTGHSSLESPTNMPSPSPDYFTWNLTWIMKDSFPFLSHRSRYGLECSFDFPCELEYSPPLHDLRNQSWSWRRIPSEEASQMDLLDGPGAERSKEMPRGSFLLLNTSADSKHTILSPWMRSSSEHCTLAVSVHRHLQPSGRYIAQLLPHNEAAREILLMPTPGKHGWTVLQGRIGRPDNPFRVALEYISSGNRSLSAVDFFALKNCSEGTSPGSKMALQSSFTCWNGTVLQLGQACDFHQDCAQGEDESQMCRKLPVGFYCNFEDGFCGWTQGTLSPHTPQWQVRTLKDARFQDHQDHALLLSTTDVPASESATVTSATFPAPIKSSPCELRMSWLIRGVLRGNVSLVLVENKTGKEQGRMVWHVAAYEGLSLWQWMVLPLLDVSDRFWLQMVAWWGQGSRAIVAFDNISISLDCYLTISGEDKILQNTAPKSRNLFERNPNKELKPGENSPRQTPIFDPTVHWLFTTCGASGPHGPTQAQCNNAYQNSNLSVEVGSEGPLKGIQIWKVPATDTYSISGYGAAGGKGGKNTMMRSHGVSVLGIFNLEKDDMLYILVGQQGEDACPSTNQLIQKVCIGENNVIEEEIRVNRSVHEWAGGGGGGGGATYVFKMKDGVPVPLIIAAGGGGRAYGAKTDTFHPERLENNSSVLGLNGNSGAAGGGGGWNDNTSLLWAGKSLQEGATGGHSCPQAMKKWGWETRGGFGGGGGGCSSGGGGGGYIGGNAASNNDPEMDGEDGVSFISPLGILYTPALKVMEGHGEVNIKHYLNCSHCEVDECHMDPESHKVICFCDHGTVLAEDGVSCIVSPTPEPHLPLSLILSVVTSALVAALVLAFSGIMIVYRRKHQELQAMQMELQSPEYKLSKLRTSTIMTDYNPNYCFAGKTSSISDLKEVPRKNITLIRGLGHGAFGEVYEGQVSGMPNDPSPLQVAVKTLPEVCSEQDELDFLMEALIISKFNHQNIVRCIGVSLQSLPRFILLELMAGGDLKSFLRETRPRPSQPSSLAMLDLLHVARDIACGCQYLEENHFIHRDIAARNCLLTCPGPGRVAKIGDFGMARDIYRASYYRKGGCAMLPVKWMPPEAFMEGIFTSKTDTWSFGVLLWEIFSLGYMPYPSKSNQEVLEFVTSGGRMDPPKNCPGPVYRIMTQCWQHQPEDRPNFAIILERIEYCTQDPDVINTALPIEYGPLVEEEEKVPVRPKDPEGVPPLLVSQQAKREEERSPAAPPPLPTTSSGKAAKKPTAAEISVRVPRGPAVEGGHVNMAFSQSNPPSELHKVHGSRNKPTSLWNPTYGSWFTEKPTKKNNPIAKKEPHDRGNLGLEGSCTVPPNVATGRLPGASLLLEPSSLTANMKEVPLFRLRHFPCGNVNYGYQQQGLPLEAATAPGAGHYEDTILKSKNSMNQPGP

Turning to `COc1ccc(-c2ccc3cnc(Nc4ccc(N5CCN(C)CC5)cc4)nn23)cc1` [Example 421, [7-(4-Methoxy-phenyl)-pyrrolo[2,1-f][1,2,4]triazin-2-yl]-[4-(4-methyl-piperazin-1-yl)-phenyl]-amine], the IC50 at ALK was 100 to 1000 nM; at JAK2 it was < 100 nM.

`COc1cccc(-c2ccc3cnc(Nc4ccc(N5CCOCC5)cc4)nn23)c1` [Example 422, [7-(3-Methoxy-phenyl)-pyrrolo[2,1-f][1,2,4]triazin-2-yl]-(4-morpholin-4-yl-phenyl)-amine]: the IC50 at ALK was > 10000 nM; on JAK2, < 100 nM.

As to `COc1cccc(-c2ccc3cnc(Nc4ccc(N5CCN(C)CC5)cc4)nn23)c1` [Example 423, [7-(3-Methoxy-phenyl)-pyrrolo[2,1-f][1,2,4]triazin-2-yl]-[4-(4-methyl-piperazin-1-yl)-phenyl]-amine], the IC50 was 100 to 1000 nM on ALK and < 100 nM at JAK2.

Take `COc1ccc(OC)c(-c2ccc3cnc(Nc4ccc(N5CCOCC5)cc4)nn23)c1` [Example 424, [7-(2,5-Dimethoxy-phenyl)-pyrrolo[2,1-f][1,2,4]triazin-2-yl]-(4-morpholin-4-yl-phenyl)-amine]: the IC50 at ALK is 100 to 1000 nM; at JAK2, < 100 nM.

For `COc1ccc(OC)c(-c2ccc3cnc(Nc4ccc(N5CCN(C)CC5)cc4)nn23)c1` [Example 425, [7-(2,5-Dimethoxy-phenyl)-pyrrolo[2,1-f][1,2,4]triazin-2-yl]-[4-(4-methyl-piperazin-1-yl)-phenyl]-amine], the values for the IC50 on ALK and on JAK2 were 100 to 1000 nM and < 100 nM, respectively.

Take `C[C@@H](O)CN1CCN(c2ccc(Nc3ncc4ccc(-c5cccc(S(=O)(=O)NC(C)(C)C)c5)n4n3)cc2)CC1` [Example 426, N-tert-Butyl-3-(2-{4-[4-((R)-2-hydroxy-propyl)-piperazin-1-yl]-phenylamino}-pyrrolo[2,1-f][1,2,4]triazin-7-yl)-benzenesulfonamide]: the IC50 on ALK was 100 to 1000 nM; at JAK2 it was < 100 nM.

Consider `C[C@H](O)CN1CCN(c2ccc(Nc3ncc4ccc(-c5cccc(S(=O)(=O)NC(C)(C)C)c5)n4n3)cc2)CC1` [Example 427, N-tert-Butyl-3-(2-{4-[4-((S)-2-hydroxy-propyl)-piperazin-1-yl]-phenylamino}-pyrrolo[2,1-f][1,2,4]triazin-7-yl)-benzenesulfonamide], for which the IC50 at ALK and at JAK2 was < 100 nM in each case.

Take `CS(=O)(=O)Nc1ccccc1-c1ccc2cnc(Nc3ccc(N4CCOCC4)cc3)nn12` [Example 428, N-{2-[2-(4-Morpholin-4-yl-phenylamino)-pyrrolo[2,1-f][1,2,4]triazin-7-yl]-phenyl}-methanesulfonamide]: the IC50 on ALK is 1000 to 10000 nM; at JAK2, < 100 nM.

With `CN1CCN(c2ccc(Nc3ncc4ccc(-c5ccccc5NS(C)(=O)=O)n4n3)cc2)CC1` [Example 429, N-(2-{2-[4-(4-Methyl-piperazin-1-yl)-phenylamino]-pyrrolo[2,1-f][1,2,4]triazin-7-yl}-phenyl)-methanesulfonamide], the values for the IC50 at ALK and on JAK2 were 100 to 1000 nM and < 100 nM, respectively.

Take `C[C@H](O)CN1CCN(c2ccc(Nc3ncc4ccc(-c5ccccc5NS(C)(=O)=O)n4n3)cc2)CC1` [Example 430, N-[2-(2-{4-[4-((S)-2-Hydroxy-propyl)-piperazin-1-yl]-phenylamino}-pyrrolo[2,1-f][1,2,4]triazin-7-yl)-phenyl]-methanesulfonamide]: the IC50 on ALK was 100 to 1000 nM; on JAK2, < 100 nM.

In the case of `CS(=O)(=O)Nc1ccccc1-c1ccc2cnc(Nc3cccc(N4CCOCC4)c3)nn12` [Example 431, N-{2-[2-(3-Morpholin-4-yl-phenylamino)-pyrrolo[2,1-f][1,2,4]triazin-7-yl]-phenyl}-methanesulfonamide], the IC50 at ALK is 1000 to 10000 nM; on JAK2, < 100 nM.

Consider `COc1ccccc1-c1ccc2cnc(Nc3ccc4c(c3)CC(=O)N4)nn12` [Example 432, 5-[7-(2-Methoxy-phenyl)-pyrrolo[2,1-f][1,2,4]triazin-2-ylamino]-1,3-dihydro-indol-2-one], for which the IC50 on ALK was 100 to 1000 nM; at JAK2, < 100 nM.

For `COc1ccc(CNc2ncc3ccc(-c4ccccc4OC)n3n2)cc1OC` [Example 442, (3,4-Dimethoxy-benzyl)-[7-(2-methoxy-phenyl)-pyrrolo[2,1-f][1,2,4]triazin-2-yl]-amine], the IC50 on ALK was > 10000 nM; at JAK2 it was 1000 to 10000 nM.

On to `COc1ccccc1-c1ccc2cnc(Nc3ccc(N4CCCC(C(=O)N5CCN(C)CC5)C4)cc3)nn12` (stereo not shown) [Example 443, (1-{4-[7-(2-Methoxy-phenyl)-pyrrolo[2,1-f][1,2,4]triazin-2-ylamino]-phenyl}-piperidin-3-yl)-(4-methyl-piperazin-1-yl)-methanone], for which the IC50 at ALK and on JAK2 was < 100 nM throughout.

Turning to `COc1ccccc1-c1ccc2cnc(Nc3ccc(N4CCC(C(=O)N5CCN(C)CC5)CC4)cc3)nn12` [Example 444, (1-{4-[7-(2-Methoxy-phenyl)-pyrrolo[2,1-f][1,2,4]triazin-2-ylamino]-phenyl}-piperidin-4-yl)-(4-methyl-piperazin-1-yl)-methanone], the IC50 at ALK and on JAK2 was < 100 nM each time.

With `CN1CCN(C(=O)C2CCN(c3ccc(Nc4ncc5ccc(-c6ccc(S(C)(=O)=O)cc6)n5n4)cc3)CC2)CC1` [Example 445, (1-{4-[7-(4-Methanesulfonyl-phenyl)-pyrrolo[2,1-f][1,2,4]triazin-2-ylamino]-phenyl}-piperidin-4-yl)-(4-methyl-piperazin-1-yl)-methanone], the IC50 on ALK is 100 to 1000 nM; on JAK2, < 100 nM.

Consider `CN1CCN(C(=O)C2CCCN(c3ccc(Nc4ncc5ccc(-c6ccc(S(C)(=O)=O)cc6)n5n4)cc3)C2)CC1` (stereo not shown) [Example 446, (1-{4-[7-(4-Methanesulfonyl-phenyl)-pyrrolo[2,1-f][1,2,4]triazin-2-ylamino]-phenyl}-piperidin-3-yl)-(4-methyl-piperazin-1-yl)-methanone], for which the IC50 was 1000 to 10000 nM on ALK and < 100 nM at JAK2.

Take `CN1CCN(C(=O)C2CCCN(c3ccc(Nc4ncc5ccc(-c6ccccc6N(C)S(C)(=O)=O)n5n4)cc3)C2)CC1` (stereo not shown) [Example 447, N-Methyl-N-[2-(2-{4-[3-(4-methyl-piperazine-1-carbonyl)-piperidin-1-yl]-phenylamino}-pyrrolo[2,1-f][1,2,4]triazin-7-yl)-phenyl]-methanesulfonamide]: the IC50 on ALK and on JAK2 was < 100 nM each time.

As to `CN1CCN(C(=O)C2CCN(c3ccc(Nc4ncc5ccc(-c6ccccc6N(C)S(C)(=O)=O)n5n4)cc3)CC2)CC1` [Example 448, N-Methyl-N-[2-(2-{4-[4-(4-methyl-piperazine-1-carbonyl)-piperidin-1-yl]-phenylamino}-pyrrolo[2,1-f][1,2,4]triazin-7-yl)-phenyl]-methanesulfonamide], the IC50 at ALK and on JAK2 was < 100 nM throughout.

In the case of `COc1ccccc1-c1ccc2cnc(NC(=O)Nc3ccc(N4CCN(C)CC4)cc3)nn12` [Example 449, 1-[7-(2-Methoxy-phenyl)-pyrrolo[2,1-f][1,2,4]triazin-2-yl]-3-[4-(4-methyl-piperazin-1-yl)-phenyl]-urea], the IC50 at ALK is 100 to 1000 nM; at JAK2, < 100 nM.

Consider `CN1CCN(CC2CCN(c3ccc(Nc4ncc5ccc(-c6ccccc6N(C)S(C)(=O)=O)n5n4)cc3)CC2)CC1` [Example 450, N-Methyl-N-[2-(2-{4-[4-(4-methyl-piperazin-1-ylmethyl)-piperidin-1-yl]-phenylamino}-pyrrolo[2,1-f][1,2,4]triazin-7-yl)-phenyl]-methanesulfonamide], for which the IC50 at ALK and at JAK2 was < 100 nM in each case.

Turning to `COc1ccccc1-c1ccc2cnc(Nc3ccc(N4CCC(CN5CCN(C)CC5)CC4)cc3)nn12` [Example 451, [7-(2-Methoxy-phenyl)-pyrrolo[2,1-f][1,2,4]triazin-2-yl]-{4-[4-(4-methyl-piperazin-1-ylmethyl)-piperidin-1-yl]-phenyl}-amine], the IC50 at ALK and at JAK2 was < 100 nM in each case.

As to `CN1CCN(CC2CCN(c3ccc(Nc4ncc5ccc(-c6ccc(S(C)(=O)=O)cc6)n5n4)cc3)CC2)CC1` [Example 452, [7-(4-Methanesulfonyl-phenyl)-pyrrolo[2,1-f][1,2,4]triazin-2-yl]-{4-[4-(4-methyl-piperazin-1-ylmethyl)-piperidin-1-yl]-phenyl}-amine], the figures for the IC50 at ALK and at JAK2 were 100 to 1000 nM and < 100 nM, respectively.

Turning to `COc1cc(N2CCC(N3CCOCC3)CC2)ccc1Nc1ncc2ccc(-c3ccccc3NC(C)=O)n2n1` [Example 453, N-(2-{2-[2-Methoxy-4-(4-morpholin-4-yl-piperidin-1-yl)-phenylamino]-pyrrolo[2,1-f][1,2,4]triazin-7-yl}-phenyl)-acetamide], the IC50 on ALK lay within 100 to 1000 nM; at JAK2, 1000 to 10000 nM.

Turning to `CC(=O)Nc1ccccc1-c1ccc2cnc(Nc3ccc(N4CCC(N5CCOCC5)CC4)cc3)nn12` [Example 454, N-(2-{2-[4-(4-Morpholin-4-yl-piperidin-1-yl)-phenylamino]-pyrrolo[2,1-f][1,2,4]triazin-7-yl}-phenyl)-acetamide], the values for the IC50 at ALK and on JAK2 were 100 to 1000 nM and < 100 nM, respectively.

Regarding `CN1CCN(CC2CCCN(c3ccc(Nc4ncc5ccc(-c6ccccc6N(C)S(C)(=O)=O)n5n4)cc3)C2)CC1` (stereo not shown) [Example 455, N-Methyl-N-[2-(2-{4-[3-(4-methyl-piperazin-1-ylmethyl)-piperidin-1-yl]-phenylamino}-pyrrolo[2,1-f][1,2,4]triazin-7-yl)-phenyl]-methanesulfonamide], the IC50 at ALK and at JAK2 was < 100 nM in each case.
